Data reported in ChEMBL document CHEMBL1201862, “PubChem BioAssay data set” (2004).
Active and inactive are the calls of the source. No stated cut-off is given here; in the data, actives have a measured IC50 and inactives only a lower limit.

Target: Envelope glycoprotein gp160 (Human immunodeficiency virus 1, UniProt Q6QLK5)
Assay: inhibitors of HIV fusion peptide binding, primary screen, biochemical, uHTS, fluorescence dequenching (AID 1986)

Chain of Envelope glycoprotein gp160 (Q6QLK5 whole entry, the tested form may be a part): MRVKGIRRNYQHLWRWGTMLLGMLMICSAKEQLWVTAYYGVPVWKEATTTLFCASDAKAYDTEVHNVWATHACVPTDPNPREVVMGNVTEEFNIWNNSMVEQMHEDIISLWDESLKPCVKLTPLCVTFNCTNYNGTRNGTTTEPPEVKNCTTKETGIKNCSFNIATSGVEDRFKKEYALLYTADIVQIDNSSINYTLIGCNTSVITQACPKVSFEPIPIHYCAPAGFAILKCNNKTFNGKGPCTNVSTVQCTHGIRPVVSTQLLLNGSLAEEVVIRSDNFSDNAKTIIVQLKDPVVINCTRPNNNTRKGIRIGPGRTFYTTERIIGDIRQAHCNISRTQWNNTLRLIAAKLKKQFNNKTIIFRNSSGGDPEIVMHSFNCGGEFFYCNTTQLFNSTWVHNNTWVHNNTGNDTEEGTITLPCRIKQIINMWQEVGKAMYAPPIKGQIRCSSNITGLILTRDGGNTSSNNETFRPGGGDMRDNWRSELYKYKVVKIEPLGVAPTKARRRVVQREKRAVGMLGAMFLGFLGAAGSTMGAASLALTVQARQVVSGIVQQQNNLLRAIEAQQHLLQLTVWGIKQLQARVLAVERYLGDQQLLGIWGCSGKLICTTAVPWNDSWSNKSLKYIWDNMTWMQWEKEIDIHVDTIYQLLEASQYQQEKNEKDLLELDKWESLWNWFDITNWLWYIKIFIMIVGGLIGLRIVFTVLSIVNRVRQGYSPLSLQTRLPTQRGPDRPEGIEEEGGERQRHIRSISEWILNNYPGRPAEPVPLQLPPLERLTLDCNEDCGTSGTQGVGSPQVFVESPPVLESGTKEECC

**Q.** N#Cc1c(-c2ccccc2)nc(SCc2ccc(Cl)cc2)[nH]c1=O was tested. Which IC50 did it give?
**A.** 22.5 µM (active)

**Q.** For COc1ccc(/C=C2/SC(=O)N(CCCCCC(=O)Nc3ccccc3C(=O)O)C2=S)cc1, which IC50 is on record?
**A.** 18 µM (active)

**Q.** For COc1cc(/C=N/Nc2ccc(Cl)c(C(=O)O)c2)ccc1OC(=O)c1ccccc1F, which IC50 is on record?
**A.** 26.2 µM (active)
